Source: paper PMC9516332 (Frontiers in Oncology, 2022)
Read-outs that look alike come from different tables or passages of the source.

Tests used:
[1] = biological target: panel of 255 wild-type kinases (Homo sapiens, UniProt P45983); experiment: Kinase panel profiling at 1 µmol/L (MSA or IMAP), percentage inhibition; type: biochemical; settings: kinase JNK1; 1 µmol/L single concentration; read-out: %-inhibition at 1 µmol/L, JNK1
[2] = biological target: T1, panel of 255 wild-type kinases (Homo sapiens, UniProt Q8IW41); experiment: as above; type: biochemical; settings: MAPKAPK5; 1 µmol/L single concentration; read-out: %-inhibition, MAPKAPK5
T1 sequence (Q8IW41 1-473): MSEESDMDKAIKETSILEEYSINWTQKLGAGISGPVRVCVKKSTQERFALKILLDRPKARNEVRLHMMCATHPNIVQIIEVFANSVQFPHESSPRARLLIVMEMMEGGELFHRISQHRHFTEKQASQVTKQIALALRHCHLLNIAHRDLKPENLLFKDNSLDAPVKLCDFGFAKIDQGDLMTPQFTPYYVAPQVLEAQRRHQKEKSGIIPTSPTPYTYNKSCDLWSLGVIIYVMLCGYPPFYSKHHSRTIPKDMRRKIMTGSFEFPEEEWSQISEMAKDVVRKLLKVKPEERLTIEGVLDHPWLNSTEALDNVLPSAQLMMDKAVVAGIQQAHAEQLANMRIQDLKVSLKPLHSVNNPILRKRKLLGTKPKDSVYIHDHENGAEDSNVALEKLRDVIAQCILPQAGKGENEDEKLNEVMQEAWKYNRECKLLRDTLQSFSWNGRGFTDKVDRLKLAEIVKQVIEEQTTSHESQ

AP-1060 (ETV6-NTRK3) = experiment: Cell viability assay
134 cancer cell lines = experiment: Cell viability assay (ATPlite, 72 hours), IC50 on cancer cell line panel

inhibition at 1 µM [1]: -3.55% | inhibition at 1 µM [2]: -3% | IC50 (134 cancer cell lines; HEC-6, read-out: IC50 in cell proliferation assay, HEC-6 cell line (EGFR p.A289V)): > 31.6 µM | IC50 (134 cancer cell lines; Homo sapiens, 769-P, read-out: IC50 in cell proliferation assay, cell line 769-P): > 31.6 µM | IC50 (134 cancer cell lines; Homo sapiens, 786-0, read-out: IC50 in cell proliferation assay, cell line 786-O): > 31.6 µM | IC50 (134 cancer cell lines; Homo sapiens, A 172, read-out: IC50 in cell proliferation assay, cell line A-172): > 31.6 µM | IC50 (134 cancer cell lines; Homo sapiens, A204, read-out: IC50 in cell proliferation assay, cell line A-204): > 31.6 µM | IC50 (134 cancer cell lines; Homo sapiens, A498, read-out: IC50 in cell proliferation assay, cell line A-498): > 31.6 µM | IC50 (134 cancer cell lines; Homo sapiens, A549, read-out: IC50 in cell proliferation assay, cell line A-549): > 31.6 µM | IC50 (134 cancer cell lines; Homo sapiens, A704, read-out: IC50 in cell proliferation assay, cell line A-704): > 31.6 µM | IC50 (134 cancer cell lines; Homo sapiens, A-375, read-out: IC50 in cell proliferation assay, cell line A-375 (BRAF p.V600E)): > 31.6 µM | IC50 (134 cancer cell lines; Homo sapiens, A-427, read-out: IC50 in cell proliferation assay, cell line A-427): > 31.6 µM | IC50 (134 cancer cell lines; Homo sapiens, ACHN, read-out: IC50 in cell proliferation assay, cell line ACHN): > 31.6 µM | IC50 (134 cancer cell lines; Homo sapiens, AN3-CA, read-out: IC50 in cell proliferation assay, cell line AN3-CA (FGFR2 p.N549K)): > 31.6 µM | IC50 (134 cancer cell lines; Homo sapiens, ASPC1, read-out: IC50 in cell proliferation assay, cell line AsPC-1): > 31.6 µM | IC50 (134 cancer cell lines; Homo sapiens, AU565, read-out: IC50 in cell proliferation assay, cell line AU565 (ERBB2 amplification)): > 31.6 µM | IC50 (134 cancer cell lines; Homo sapiens, BT-20, read-out: IC50 in cell proliferation assay, cell line BT-20): > 31.6 µM | IC50 (134 cancer cell lines; Homo sapiens, BT-474, read-out: IC50 in cell proliferation assay, cell line BT-474 (ERBB2 amplification)): > 31.6 µM | IC50 (134 cancer cell lines; Homo sapiens, BT-549, read-out: IC50 in cell proliferation assay, cell line BT-549): > 31.6 µM | IC50 (134 cancer cell lines; Homo sapiens, BXPC-3, read-out: IC50 in cell proliferation assay, cell line BxPC-3): > 31.6 µM | IC50 (134 cancer cell lines; Homo sapiens, C-33-A, read-out: IC50 in cell proliferation assay, cell line C-33 A): > 31.6 µM | IC50 (134 cancer cell lines; Homo sapiens, CAL-27, read-out: IC50 in cell proliferation assay, cell line CAL-27): > 31.6 µM | IC50 (134 cancer cell lines; Homo sapiens, CCF-STTG1, read-out: IC50 in cell proliferation assay, cell line CCF-STTG1): > 31.6 µM | IC50 (134 cancer cell lines; Homo sapiens, CCRF-CEM, read-out: IC50 in cell proliferation assay, cell line CCRF-CEM): > 31.6 µM | IC50 (134 cancer cell lines; Homo sapiens, COLO 205, read-out: IC50 in cell proliferation assay, cell line COLO 205 (BRAF p.V600E)): > 31.6 µM | IC50 (134 cancer cell lines; Homo sapiens, COLO-829, read-out: IC50 in cell proliferation assay, cell line COLO 829 (BRAF p.V600E)): > 31.6 µM | IC50 (134 cancer cell lines; Homo sapiens, DLD-1, read-out: IC50 in cell proliferation assay, cell line DLD-1): > 31.6 µM | IC50 (134 cancer cell lines; Homo sapiens, DU-4475, read-out: IC50 in cell proliferation assay, cell line DU4475 (BRAF p.V600E)): > 31.6 µM | IC50 (134 cancer cell lines; Homo sapiens, Daoy, read-out: IC50 in cell proliferation assay, cell line Daoy): > 31.6 µM | IC50 (134 cancer cell lines; Homo sapiens, DoTc2-4510, read-out: IC50 in cell proliferation assay, cell line DoTc2 4510): > 31.6 µM | IC50 (134 cancer cell lines; Homo sapiens, EOL1, read-out: IC50 in cell proliferation assay, cell line EoL-1 (FIP1L1-PDGFRA)): > 31.6 µM | IC50 (134 cancer cell lines; Homo sapiens, FaDu, read-out: IC50 in cell proliferation assay, cell line FaDu): > 31.6 µM | IC50 (134 cancer cell lines; Homo sapiens, G-361, read-out: IC50 in cell proliferation assay, cell line G-361 (BRAF p.V600E)): > 31.6 µM | IC50 (134 cancer cell lines; Homo sapiens, HCC827, read-out: IC50 in cell proliferation assay, cell line HCC827 (EGFR exon19del)): > 31.6 µM | IC50 (134 cancer cell lines; Homo sapiens, HCC4006, read-out: IC50 in cell proliferation assay, cell line HCC4006 (EGFR exon19del)): > 31.6 µM | IC50 (134 cancer cell lines; Homo sapiens, HCT-15, read-out: IC50 in cell proliferation assay, cell line HCT 15): > 31.6 µM | IC50 (134 cancer cell lines; Homo sapiens, HCT-116, read-out: IC50 in cell proliferation assay, cell line HCT 116): > 31.6 µM | IC50 (134 cancer cell lines; Homo sapiens, HEC-1, read-out: IC50 in cell proliferation assay, HEC-1 cell line): > 31.6 µM | IC50 (134 cancer cell lines; Homo sapiens, HEC-1B, read-out: IC50 in cell proliferation assay, HEC-1-B cell line (EGFR p.A864V)): > 31.6 µM | IC50 (134 cancer cell lines; Homo sapiens, HL-60, read-out: IC50 in cell proliferation assay, HL-60 cell line): > 31.6 µM | IC50 (134 cancer cell lines; Homo sapiens, HT, read-out: IC50 in cell proliferation assay, HT cell line): > 31.6 µM | IC50 (134 cancer cell lines; Homo sapiens, HT-1080, read-out: IC50 in cell proliferation assay, HT-1080 cell line): > 31.6 µM | IC50 (134 cancer cell lines; Homo sapiens, Hs746T, read-out: IC50 in cell proliferation assay, Hs 746.T cell line (MET exon14skip + amplification)): > 31.6 µM | IC50 (134 cancer cell lines; Homo sapiens, Hs-578T, read-out: IC50 in cell proliferation assay, Hs 578T cell line): > 31.6 µM | IC50 (134 cancer cell lines; Homo sapiens, HuTu80, read-out: IC50 in cell proliferation assay, HuTu 80 cell line): > 31.6 µM | IC50 (134 cancer cell lines; Homo sapiens, J82, read-out: IC50 in cell proliferation assay, J82 cell line): > 31.6 µM | IC50 (134 cancer cell lines; Homo sapiens, Jurkat E6.1, read-out: IC50 in cell proliferation assay, Jurkat E6.1 cell line): > 31.6 µM | IC50 (134 cancer cell lines; Homo sapiens, K562, read-out: IC50 in cell proliferation assay, K-562 cell line): > 31.6 µM | IC50 (134 cancer cell lines; Homo sapiens, KATO III, read-out: IC50 in cell proliferation assay, KATO III cell line (FGFR2 amplification)): > 31.6 µM | IC50 (134 cancer cell lines; Homo sapiens, KG-1, read-out: IC50 in cell proliferation assay, KG-1 cell line (FGFR1OP2-FGFR1)): > 31.6 µM | IC50 (134 cancer cell lines; Homo sapiens, KLE, read-out: IC50 in cell proliferation assay, KLE cell line): > 31.6 µM | IC50 (134 cancer cell lines; Homo sapiens, KMS-11, read-out: IC50 in cell proliferation assay, KMS-11 cell line (FGFR3 p.Y373C)): > 31.6 µM | IC50 (134 cancer cell lines; Homo sapiens, KU812, read-out: IC50 in cell proliferation assay, Ku812 cell line): > 31.6 µM | IC50 (134 cancer cell lines; Homo sapiens, Kasumi 1, read-out: IC50 in cell proliferation assay, Kasumi-1 cell line (KIT p.N822K)): > 31.6 µM | IC50 (134 cancer cell lines; Homo sapiens, LC-2-ad, read-out: IC50 in cell proliferation assay, LC-2/ad cell line (CCDC6-RET)): > 31.6 µM | IC50 (134 cancer cell lines; Homo sapiens, LNCaP-Clone-FGC, read-out: IC50 in cell proliferation assay, LNCaP clone FGC cell line): > 31.6 µM | IC50 (134 cancer cell lines; Homo sapiens, LS174T, read-out: IC50 in cell proliferation assay, LS174T cell line): > 31.6 µM | IC50 (134 cancer cell lines; Homo sapiens, LS-411N, read-out: IC50 in cell proliferation assay, LS411N cell line (BRAF p.V600E)): > 31.6 µM | IC50 (134 cancer cell lines; Homo sapiens, LoVo, read-out: IC50 in cell proliferation assay, LoVo cell line): > 31.6 µM | IC50 (134 cancer cell lines; Homo sapiens, MCF7, read-out: IC50 in cell proliferation assay, MCF-7 cell line): > 31.6 µM | IC50 (134 cancer cell lines; Homo sapiens, MDA-MB-231, read-out: IC50 in cell proliferation assay, MDA-MB-231 cell line): > 31.6 µM | IC50 (134 cancer cell lines; Homo sapiens, MDA-MB-453, read-out: IC50 in cell proliferation assay, MDA-MB-453 cell line): > 31.6 µM | IC50 (134 cancer cell lines; Homo sapiens, MDA-MB-468, read-out: IC50 in cell proliferation assay, MDA-MB-468 cell line): > 31.6 µM | IC50 (134 cancer cell lines; Homo sapiens, MG-63, read-out: IC50 in cell proliferation assay, MG-63 cell line): > 31.6 µM | IC50 (134 cancer cell lines; Homo sapiens, MIA PaCa-2, read-out: IC50 in cell proliferation assay, MIA PaCa-2 cell line): > 31.6 µM | IC50 (134 cancer cell lines; Homo sapiens, MKN-45, read-out: IC50 in cell proliferation assay, MKN45 cell line (MET amplification)): > 31.6 µM
Structure (SMILES): O=C(Nc1cnn2ccc(N3CCC[C@@H]3c3cc(F)ccc3F)nc12)N1CC[C@H](O)C1 [larotrectinib]
potency in AP-1060 compared to entrectinib (AP-1060 (ETV6-NTRK3); cell viability): around four-fold more potent | IC50 (AP-1060 (ETV6-NTRK3); read-out: IC50 in cell proliferation assay): 0.009 µM
